# Test results: US9963434B2, “N-arylmethyl sulfonamide negative modulators of NR2A” (LUC THERAPEUTICS, priority 2013, dated 2018)
# Read-outs that look alike come from different tables or passages of the source.
# Molecular target: NR1/NR2A (Homo sapiens (Human), UniProt Q05586+Q12879)
# Test: FDSS Ca2+ influx inhibition assay in HEK293 cells expressing NR1/NR2A
# Assay type: cell-based
# Conditions: 3 μM glutamate, 3 μM glycine, 1 mM Ca2+
# Method in brief: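 Fluo-8-loaded HEK293 NR1/NR2A cells preincubated 10 min with compound at 10 μM final (0.1% DMSO) in Ca2+/Mg2+-free HBSS with 20 mM HEPES. Stimulated with 3 μM glutamate, 3 μM glycine, 1 mM Ca2+; FDSS recording for 3 min, end/baseline fluorescence ratio compared with MK801.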
# [1] = inhibition relative to MK801, read-out: NR2A IC50
# Sequence of NR1/NR2A (Q12879 23-1464, other chains not shown): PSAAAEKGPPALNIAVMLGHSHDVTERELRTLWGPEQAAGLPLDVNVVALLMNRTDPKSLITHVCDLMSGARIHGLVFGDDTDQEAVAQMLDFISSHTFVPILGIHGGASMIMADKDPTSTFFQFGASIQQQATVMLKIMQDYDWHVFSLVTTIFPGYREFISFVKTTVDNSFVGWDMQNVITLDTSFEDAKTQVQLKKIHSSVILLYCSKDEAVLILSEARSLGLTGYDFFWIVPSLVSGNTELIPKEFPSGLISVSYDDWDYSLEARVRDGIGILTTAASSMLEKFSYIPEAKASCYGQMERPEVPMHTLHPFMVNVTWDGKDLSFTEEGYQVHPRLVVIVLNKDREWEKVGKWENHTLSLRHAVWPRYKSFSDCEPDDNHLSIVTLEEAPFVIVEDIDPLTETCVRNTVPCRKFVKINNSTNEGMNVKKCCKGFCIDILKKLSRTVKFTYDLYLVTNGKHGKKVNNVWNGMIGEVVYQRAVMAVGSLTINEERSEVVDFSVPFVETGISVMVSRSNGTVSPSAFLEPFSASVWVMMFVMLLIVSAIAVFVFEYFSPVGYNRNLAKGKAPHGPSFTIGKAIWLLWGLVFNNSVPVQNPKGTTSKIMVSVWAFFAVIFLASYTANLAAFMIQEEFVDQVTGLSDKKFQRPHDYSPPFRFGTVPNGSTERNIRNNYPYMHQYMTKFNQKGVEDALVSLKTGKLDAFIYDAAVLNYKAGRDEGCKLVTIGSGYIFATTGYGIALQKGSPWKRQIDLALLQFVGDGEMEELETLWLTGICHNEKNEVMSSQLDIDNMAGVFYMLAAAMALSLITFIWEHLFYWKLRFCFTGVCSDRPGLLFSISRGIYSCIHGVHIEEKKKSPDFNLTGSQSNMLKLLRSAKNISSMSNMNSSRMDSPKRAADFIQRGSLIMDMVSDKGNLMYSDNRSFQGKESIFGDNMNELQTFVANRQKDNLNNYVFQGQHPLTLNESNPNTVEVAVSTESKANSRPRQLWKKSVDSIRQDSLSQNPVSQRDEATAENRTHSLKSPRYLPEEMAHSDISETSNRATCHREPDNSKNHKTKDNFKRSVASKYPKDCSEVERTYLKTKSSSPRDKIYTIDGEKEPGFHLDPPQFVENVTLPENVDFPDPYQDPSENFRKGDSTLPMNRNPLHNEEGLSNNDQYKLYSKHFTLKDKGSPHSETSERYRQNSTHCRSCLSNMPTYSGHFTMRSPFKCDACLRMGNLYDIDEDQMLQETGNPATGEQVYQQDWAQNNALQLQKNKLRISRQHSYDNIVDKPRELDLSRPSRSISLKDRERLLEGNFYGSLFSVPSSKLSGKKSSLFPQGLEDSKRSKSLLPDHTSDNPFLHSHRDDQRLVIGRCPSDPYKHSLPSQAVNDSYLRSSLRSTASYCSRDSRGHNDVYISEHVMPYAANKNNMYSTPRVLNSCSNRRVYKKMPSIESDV
Compound,IC50 [1] [µM],IC50 (read-out: Binned Activity) [µM]
Cc1ccc(CNC(=O)c2ccc(CNS(=O)(=O)c3ccc(F)c(Cl)c3)nc2)s1 [6-(3-chloro-4-fluorobenzenesulfon-amidomethyl)-N-[(5-methylthiophen-2-yl)methyl]pyridine-3-carboxamide],10,> 10
COc1ccc(CNC(=O)c2ccc(CNS(=O)(=O)c3ccc(F)c(Cl)c3)nc2)cn1 [6-(3-chloro-4-fluorobenzenesulfon-amidomethyl)-N-[(6-methoxypyridin-3-yl)methyl]pyridine-3-carboxamide],10,> 10
Cc1cccc(CNC(=O)c2ccc(CNS(=O)(=O)c3ccc(F)c(Cl)c3)nc2)n1 [6-(3-chloro-4-fluorobenzenesulfon-amidomethyl)-N-[(6-methylpyridin-2-yl)methyl]pyridine-3-carboxamide],10,> 10
"Cc1nc(C)c(CNC(=O)c2ccc(CNS(=O)(=O)c3ccc(F)c(Cl)c3)nn2)s1 [6-(3-chloro-4-fluorobenzenesulfon-amidomethyl)-N-[(dimethyl-1,3-thiazol-5-yl)methyl]pyridazine-3-carboxamide]",10,> 10
"Cc1nc(C)c(CNC(=O)c2ccc(CNS(=O)(=O)c3ccc(F)c(Cl)c3)nc2)s1 [6-(3-chloro-4-fluorobenzenesulfon-amidomethyl)-N-[(dimethyl-1,3-thiazol-5-yl)methyl]pyridine-3-carboxamide]",10,> 10
O=C(NCc1ncccc1C(F)(F)F)c1ccc(CNS(=O)(=O)c2ccc(F)c(Cl)c2)nc1 [6-(3-chloro-4-fluorobenzenesulfon-amidomethyl)-N-{[3-(trifluoromethyl)pyridin-2-yl]methyl}pyridine-3-carboxamide],10,> 10
O=C(NCc1ncc(C(F)(F)F)cc1Cl)c1ccc(CNS(=O)(=O)c2ccc(F)c(Cl)c2)nc1 [6-(3-chloro-4-fluorobenzenesulfon-amidomethyl)-N-{[3-chloro-5-(trifluoromethyl)pyridin-2-yl]methyl}pyridine-3-carboxamide],10,> 10
"Cc1ncc(CNC(=O)c2ccc(CNS(=O)(=O)c3cn(C)cn3)cn2)s1 [N-[(2-methyl-1,3-thiazol-5-yl)methyl]-5-(1-methyl-1H-imidazole-4-sulfonamidomethyl) pyridine-2-carboxamide]",10,> 10
"Cc1ncc(CNC(=O)c2ccc(CNS(=O)(=O)c3ccn(C)n3)cn2)s1 [N-[(2-methyl-1,3-thiazol-5-yl)methyl]-5-(1-methyl-1H-pyrazole-3-sulfonamidomethyl) pyridine-2-carboxamide]",10,> 10
"Cc1ncc(CNC(=O)c2cnc(CNS(=O)(=O)c3ccc(Oc4ccccc4)nc3)cn2)s1 [N-[(2-methyl-1,3-thiazol-5-yl)methyl]-5-(6-phenoxypyridine-3-sulfonamidomethyl) pyrazine-2-carboxamide]",10,> 10
"Cc1ncc(CNC(=O)c2ccc(CNS(=O)(=O)c3ccc(Oc4ccccc4)nc3)cn2)s1 [N-[(2-methyl-1,3-thiazol-5-yl)methyl]-5-(6-phenoxypyridine-3-sulfonamidomethyl) pyridine-2-carboxamide]",10,> 10
"Cc1ncc(CNC(=O)c2ccc(CNS(=O)(=O)c3cccc4cccnc34)cn2)s1 [N-[(2-methyl-1,3-thiazol-5-yl)methyl]-5-(quinoline-8-sulfonamidomethyl) pyridine-2-carboxamide]",10,> 10
"Cc1ncc(CNC(=O)c2cnc(CNS(=O)(=O)c3cccs3)cn2)s1 [N-[(2-methyl-1,3-thiazol-5-yl)methyl]-5-(thiophene-2-sulfonamidomethyl) pyrazine-2-carboxamide]",–,1 to 10
"Cc1ncc(CNC(=O)c2ccc(CNS(=O)(=O)c3cccs3)cn2)s1 [N-[(2-methyl-1,3-thiazol-5-yl)methyl]-5-(thiophene-2-sulfonamidomethyl) pyridine-2-carboxamide]",–,1 to 10
"Cc1ncc(CNC(=O)c2cnc(CNS(=O)(=O)c3ccsc3)cn2)s1 [N-[(2-methyl-1,3-thiazol-5-yl)methyl]-5-(thiophene-3-sulfonamidomethyl) pyrazine-2-carboxamide]",10,> 10
"Cc1ncc(CNC(=O)c2ccc(CNS(=O)(=O)c3ccsc3)cn2)s1 [N-[(2-methyl-1,3-thiazol-5-yl)methyl]-5-(thiophene-3-sulfonamidomethyl) pyridine-2-carboxamide]",10,> 10
"Cc1ncc(CNC(=O)c2ccc(CNS(=O)(=O)c3ccc(-c4csnn4)cc3)cn2)s1 [N-[(2-methyl-1,3-thiazol-5-yl)methyl]-5-[4-(1,2,3-thiadiazol-4-yl)benzenesulfonamido-methyl]pyridine-2-carboxamide]",10,> 10
"Cc1ncc(CNC(=O)c2ccc(CNS(=O)(=O)c3ccc(C(F)(F)F)cc3)cn2)s1 [N-[(2-methyl-1,3-thiazol-5-yl)methyl]-5-[4-(trifluoromethyl)benzene-sulfonamidomethyl] pyridine-2-carboxamide]",10,> 10
"Cc1ncc(CNC(=O)c2ccc(CNS(=O)(=O)c3ccc(C(F)(F)F)nc3)cn2)s1 [N-[(2-methyl-1,3-thiazol-5-yl)methyl]-5-[6-(trifluoromethyl)pyridine-3-sulfonamidomethyl] pyridine-2-carboxamide]",10,> 10
O=C(NCc1ccc(Cl)c(F)c1)c1ccc(CNS(=O)(=O)c2ccc(F)c(Cl)c2)cn1 [N-[(4-chloro-3-fluorophenyl)methyl]-5-(3-chloro-4-fluorobenzenesulfon-amidomethyl)pyridine-2-carboxamide],10,> 10
